Assay results published in BindingDB's records for doi:10.1074/jbc.M110.156463 (Merck Research Laboratories, 2011).

The compounds below were run against T1, 3-phosphoinositide-dependent protein kinase 1 (Homo sapiens, UniProt O15530) (assay: Proliferation Assay).
T1 sequence (O15530 whole entry): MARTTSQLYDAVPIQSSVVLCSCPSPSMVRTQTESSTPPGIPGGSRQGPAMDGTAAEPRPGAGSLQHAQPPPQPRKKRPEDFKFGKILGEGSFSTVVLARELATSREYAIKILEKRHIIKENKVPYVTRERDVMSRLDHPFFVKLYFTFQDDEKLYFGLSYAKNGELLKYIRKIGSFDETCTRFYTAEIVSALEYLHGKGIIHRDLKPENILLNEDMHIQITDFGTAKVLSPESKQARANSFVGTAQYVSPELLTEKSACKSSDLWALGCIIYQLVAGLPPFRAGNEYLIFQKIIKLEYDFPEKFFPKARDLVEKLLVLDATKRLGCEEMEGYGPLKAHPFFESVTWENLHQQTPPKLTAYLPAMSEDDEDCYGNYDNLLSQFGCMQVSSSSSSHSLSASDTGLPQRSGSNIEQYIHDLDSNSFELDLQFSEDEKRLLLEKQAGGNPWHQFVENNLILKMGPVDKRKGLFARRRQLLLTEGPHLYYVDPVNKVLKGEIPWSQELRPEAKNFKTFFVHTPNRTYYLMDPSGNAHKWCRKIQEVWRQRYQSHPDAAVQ
Method: Enzyme potency (PDK1 EC50)was determined using recombinant, purified full-length human PDK1 enzyme and AKT-Thr-308-tide as substrate.

| EC50 [nM] | SMILES |
| --- | --- |
| 9 | Cc1[nH]nc2c1c(=O)n(CCCN)c1ccc(Cl)cc21 |
| 1 | CC(C)(C)c1nc2c3ccc(F)cc3c3c(=O)[nH]ccc3c2[nH]1 [Jak Inhibitor 1] |
| 26 | O=C(NCCCNc1nc(Nc2cccc(NC(=O)N3CCCC3)c2)ncc1I)c1cccs1 [N-{3-[(5-iodo-4-{[3-(thiophen-2-ylformamido)propyl]amino}pyrimidin-2-yl)amino]phenyl}pyrrolidine-1-carboxamide] |
| 9 | CC(Nc1nc2c(C#CC3CC3)c[nH]c(=O)c2c2cc(-c3cn[nH]c3)ccc12)C(C)(C)C (stereo unspecified) [PDK1 inhibitor, 2] |
| 200 | COc1ccc(C#Cc2ccc3ncc4ncn(-c5ccc(CCN)cc5)c4c3c2)cc1 [PDK1 inhibitor, 4] |
| 12 | Cc1[nH]nc(-c2nc3cc4c[nH][nH]c4cc3n2)c1C(=O)NC1CCNCC1 [PDK1 inhibitor, 6] |
